Experiments:
CB2 = tested on: CB2; set-up: method as in Evens et al., 2011; details: ref Evens et al., 2011; cited from earlier work
[1] = biodistribution studies in male NMRI mice; type: in vivo, mouse; details: mouse, in vivo; for % ID bladder + urine / % ID blood / % ID bone / % ID heart / % ID intestines / % ID kidneys / % ID liver / % ID lungs / % ID pancreas / % ID spleen / % ID stomach / SUV blood / SUV bone / SUV brain / SUV heart / SUV kidneys / SUV liver / SUV lungs / SUV pancreas / SUV spleen / % ID brain: iv
Procedure: The tissue distribution and kinetics of [^11C]MA2 and [^18F]MA3 were studied in male NMRI mice at 2, 10, 30, and 60 min post injection of the tracer. The results of the biodistribution studies are presented in Table 1 ([^11C]MA2) and Table 2 ([^18F]MA3) as percentage of injected dose (% ID) and standard uptake value (SUV).
The biodistribution of [^11C]MA2 and [^18F]MA3 was studied in normal male Naval Medical Research Institute (NMRI) mice. A solution of HPLC-purified [^11C]MA2 or [^18F]MA3 was diluted with saline to obtain an ethanol concentration < 10%. Mice were anesthetized with isoflurane (2% in oxygen) and injected intravenously (i.v.) with [^11C]MA2 (~ 9.25 MBq) or [^18F]MA3 (~ 0.92 MBq) via a lateral tail vein. The mice were sacrificed by decapitation at 2, and 60 min post injection (for [^11C]MA2, n = 4) and at 2, 10, 30, or 60 min post injection (for [^18F]MA3, n = 3 or 4 per time point) and dissected. Blood, organs, and other body parts were collected in tared tubes and the radioactivity in each tube was measured using an automated gamma counter. The tubes containing selected organs and blood were weighed. For calculation of total radioactivity in blood, blood mass was assumed to be 7% of the body mass (Fritzberg et al., [1982]). Quantitative data are expressed as mean ± standard deviation (SD). Means were compared using an unpaired two-tailed student t-test. Values were considered statistically significant for P ≤ 0.05.

## Cc1c(CCN2CCOCC2)c2cc(O[11CH3])ccc2n1C(=O)c1cccc(Cl)c1Cl [[^11C]GW405833]
CB2
  binding affinity for CB2: 35 nM

## Fc1ccc(-c2noc(CCCNc3cnc4ccc(OCC[18F])cc4c3)n2)c(Cl)c1 [[^18F]MA3]
[1]; male, NMRI
  blood % ID 2 min/60 min ratio: 5.2
  brain % ID 2 min/60 min ratio: 9.2
[1]; male, NMRI, 2 min
  % ID bladder + urine: 0.2 ± 0.2 % ID
  % ID blood: 5.4 ± 0.4 % ID
  % ID bone: 5.3 ± 1.2 % ID
  % ID heart: 1.2 ± 0.1 % ID
  % ID intestines: 9.4 ± 3.9 % ID
  % ID kidneys: 9.0 ± 1.2 % ID
  % ID liver: 31.4 ± 8.4 % ID
  % ID lungs: 1.2 ± 0.3 % ID
  % ID pancreas: 1.4 ± 0.3 % ID
  % ID spleen: 0.4 ± 0.1 % ID
  % ID stomach: 1.4 ± 0.2 % ID
  SUV blood: 0.8 ± 0.1
  SUV bone: 0.4 ± 0.1
  SUV brain: 1.1 ± 0.1
  SUV heart: 3.4 ± 0.3
  SUV kidneys: 5.4 ± 0.4
  SUV liver: 7.2 ± 2.0
  SUV lungs: 2.8 ± 0.7
  SUV pancreas: 3.0 ± 0.5
  SUV spleen: 5.1 ± 0.6
[1]; male, NMRI, 10 min
  % ID bladder + urine: 0.4 ± 0.0 % ID
  % ID blood: 2.2 ± 0.3 % ID
  % ID bone: 3.5 ± 0.2 % ID
  % ID brain: 1.0 ± 0.1 % ID
  % ID heart: 0.3 ± 0.0 % ID
  % ID intestines: 30.8 ± 6.1 % ID
  % ID kidneys: 1.6 ± 0.2 % ID
  % ID liver: 26.1 ± 3.4 % ID
  % ID lungs: 0.5 ± 0.0 % ID
  % ID pancreas: 0.4 ± 0.1 % ID
  % ID spleen: 0.3 ± 0.1 % ID
  % ID stomach: 0.5 ± 0.0 % ID
  SUV blood: 0.3 ± 0.0
  SUV bone: 0.3 ± 0.0
  SUV brain: 0.5 ± 0.0
  SUV heart: 0.6 ± 0.0
  SUV kidneys: 1.1 ± 0.1
  SUV liver: 4.7 ± 0.7
  SUV lungs: 0.7 ± 0.1
  SUV pancreas: 0.8 ± 0.0
  SUV spleen: 0.5 ± 0.0
[1]; male, NMRI, 30 min
  % ID bladder + urine: 1.7 ± 0.3 % ID
  % ID blood: 1.2 ± 0.1 % ID
  % ID bone: 1.6 ± 0.5 % ID
  % ID brain: 0.3 ± 0.1 % ID
  % ID heart: 0.1 ± 0.0 % ID
  % ID intestines: 56.2 ± 5.4 % ID
  % ID kidneys: 1.0 ± 0.2 % ID
  % ID liver: 17.3 ± 6.7 % ID
  % ID lungs: 0.2 ± 0.0 % ID
  % ID pancreas: 0.2 ± 0.1 % ID
  % ID spleen: 0.1 ± 0.0 % ID
  % ID stomach: 0.8 ± 1.0 % ID
  SUV blood: 0.2 ± 0.0
  SUV bone: 0.1 ± 0.0
  SUV brain: 0.2 ± 0.0
  SUV heart: 0.4 ± 0.1
  SUV kidneys: 0.6 ± 0.1
  SUV liver: 3.7 ± 1.4
  SUV lungs: 0.4 ± 0.1
  SUV pancreas: 0.4 ± 0.1
  SUV spleen: 0.5 ± 0.3
[1]; male, NMRI, 60 min
  % ID blood: 1.0 ± 0.3 % ID
  % ID bone: 2.2 ± 0.3 % ID
  % ID brain: 0.1 ± 0.0 % ID
  % ID heart: 0.1 ± 0.0 % ID
  % ID kidneys: 0.7 ± 0.3 % ID
  % ID liver: 10.2 ± 5.2 % ID
  % ID lungs: 0.1 ± 0.0 % ID
  % ID pancreas: 0.1 ± 0.0 % ID
  % ID spleen: 0.03 ± 0.01 % ID
  % ID stomach: 4.4 ± 5.1 % ID
  SUV blood: 0.1 ± 0.0
  SUV bone: 0.2 ± 0.0
  SUV brain: 0.1 ± 0.0
  SUV heart: 0.3 ± 0.0
  SUV kidneys: 0.5 ± 0.1
  SUV lungs: 0.3 ± 0.1
  SUV pancreas: 0.3 ± 0.1
  SUV spleen: 0.5 ± 0.1
[1]
  accumulation in the spleen: no accumulation
